Measured values taken from article PMC11404609, “Gut microbiota-mediated C-sulfonate metabolism impairs the bioavailability and anti-cholestatic efficacy of andrographolide” (Gut Microbes, 2024).

Tested on: FXR downstream bile acid transporters
Experiment: Expression of FXR downstream bile acid transporters in liver (qPCR, Western blot)
Format: in vivo, mice
Conditions: AP 200 mg/kg i.p.
Method: Total RNA from frozen livers of Vehicle, AP (200 mg/kg, i.p.), ANIT (50 mg/kg), and ANIT+AP (200 mg/kg, i.p.) groups was extracted using the Animal Total RNA Isolation Kit (FOREGENE, China). cDNA was synthesized using a Color Reverse Transcription Kit (EZBioscience, Roseville, CA, USA). qPCR was performed using SYBR green/Rox qPCR master mix (EZBioscience, Roseville, CA, USA), according to the manufacturer’s instruction. The expression of target genes was normalized to β-actin, and fold changes were calculated using 2^–ΔΔCT method. For bacterial identification, genomic DNA of fecal flora was isolated using the TIANamp Stool DNA Kit (TIANGEN, Beijing, China) and qPCR was performed. The relative abundance and expression of Desulfovibrio spp., D. piger and APS reductase were normalized to the amounts of total bacteria (16S). All primers were synthesized by Tsingke Biotechnology Co., Ltd. (Beijing, China) and were listed in Supplementary Table S1.
Liver tissue from Vehicle, AP (200 mg/kg, i.p.), ANIT (50 mg/kg), and ANIT+AP (200 mg/kg, i.p.) groups was homogenized in RIPA buffer (Thermo Scientific). […] The collected supernatant was quantified using BCA protein assay kit (Epizyme). […] To visualize the protein bands, the membrane was reacted with Immobilon Forte Western HRP (Millipore) substrate solution for 2 min and analyzed using Tanon5200 imager. […]

Compound: C=C1CC[C@@H]2[C@](C)(CO)[C@H](O)CC[C@@]2(C)[C@@H]1C/C=C1/C(=O)OC[C@H]1O [AP, Andrographolide]
- expression of FXR downstream bile acid transporters (Mrp2, Mrp3, Mrp4, Oatp1, and Ntcp, except for Bsep, Ost-α and Ost-β): heightened the expression
